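Growth conditions: 96-well plates. Treatment: test compound, 48 hours, 5 concentrations. Analysis: linear interpolation between bracketing concentrations; unreached endpoints set to highest concentration. GI50 marks 50% less growth. TGI marks complete inhibition of growth.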

Test systems include A549 NSCLC; HOP-62 NSCLC; MOLT-4 leukemia; NCI-H522 lung; SF-295 CNS; SK-MEL-2 melanoma; SW-620 colon; T-47D breast.
What all share (experiment): growth of human tumour cells (NCI), 48 h

Turning to `O=c1cc(N/N=C/c2ccc(F)cc2)c2cc(Cl)ccc2[nH]1`, the GI50 was 23.5 µM in the assay on A549 NSCLC; 20.7 µM with HOP-62 NSCLC; 4.07 µM in the assay on MOLT-4 leukemia; 17.4 µM in the assay on NCI-H522 lung; 21.9 µM in the assay on SF-295 CNS; 18.3 µM in the assay on SK-MEL-2 melanoma. The values for the GI50 in the assay on SW-620 colon and in the assay with T-47D breast were 26.8 µM and 18.6 µM, respectively. Besides, the TGI in the assay on A549 NSCLC is greater than 100 µM; with HOP-62 NSCLC, greater than 100 µM; with MOLT-4 leukemia, greater than 100 µM; in the assay with NCI-H522 lung it was 74.3 µM; in the assay with SF-295 CNS, greater than 100 µM; in the assay with SK-MEL-2 melanoma it was 69.3 µM. The TGI with SW-620 colon and with T-47D breast was greater than 100 µM in each case.
`CN(C)c1nc2ccccc2c2c1c1c(n2Cc2ccccc2)-c2ccccc2C1=O`: the GI50 in the assay on A549 NSCLC was greater than 100 µM; in the assay with HOP-62 NSCLC it was greater than 100 µM; in the assay with MOLT-4 leukemia it was 25.5 µM; in the assay on NCI-H522 lung, greater than 100 µM; in the assay with SF-295 CNS it was greater than 100 µM; in the assay with SK-MEL-2 melanoma it was greater than 100 µM. Moreover, the GI50 is greater than 100 µM in the assay on SW-620 colon and 55.6 µM in the assay on T-47D breast. Moreover, the TGI with A549 NSCLC, in the assay on HOP-62 NSCLC, with MOLT-4 leukemia, in the assay with NCI-H522 lung, with SF-295 CNS and in the assay with SK-MEL-2 melanoma was greater than 100 µM in each case. Besides, the TGI in the assay on SW-620 colon and in the assay on T-47D breast was greater than 100 µM throughout.
`Cc1cc(N=C2C=C(Br)C(=O)C(Br)=C2)cc(CN(CC(=O)O)CC(=O)O)c1O`: the TGI in the assay with A549 NSCLC, in the assay on HOP-62 NSCLC, with MOLT-4 leukemia, in the assay with NCI-H522 lung, with SF-295 CNS and in the assay with SK-MEL-2 melanoma was greater than 100 µM each time. For the same molecule, the TGI in the assay with SW-620 colon and in the assay with T-47D breast was greater than 100 µM in each case.
In the case of `Cn1cc(-c2ccc3nnc(Sc4ccc5ncccc5c4)n3n2)cn1`, the GI50 is greater than 86 µM in the assay with A549 NSCLC; 30.9 µM in the assay with HOP-62 NSCLC; greater than 100 µM in the assay with MOLT-4 leukemia; greater than 100 µM in the assay with NCI-H522 lung; 2.06 µM in the assay with SF-295 CNS; 48.4 µM in the assay with SK-MEL-2 melanoma. The GI50 in the assay on SW-620 colon is greater than 100 µM; in the assay on T-47D breast, 99.3 µM. Also, the TGI with A549 NSCLC, in the assay with HOP-62 NSCLC, in the assay on MOLT-4 leukemia, in the assay with NCI-H522 lung, with SF-295 CNS and in the assay with SK-MEL-2 melanoma was greater than 100 µM in each case. Also, the TGI in the assay with SW-620 colon and with T-47D breast was greater than 100 µM throughout.
As for `C=CC(=O)Nc1cc(N2CCN(CC)CC2)ccc1Nc1cc(N(C)C(=O)Nc2c(Cl)c(OC)cc(OC)c2Cl)ncn1`, the GI50 in the assay on A549 NSCLC was 11.7 µM; with HOP-62 NSCLC, 11.9 µM; in the assay on MOLT-4 leukemia it was 3.01 µM; with NCI-H522 lung, 4.77 µM; in the assay on SF-295 CNS, 16.7 µM; in the assay on SK-MEL-2 melanoma, 13 µM. In addition, the GI50 was 3.29 µM with SW-620 colon and 3.3 µM with T-47D breast. Moreover, the TGI in the assay with A549 NSCLC was found to be 37.6 µM; with HOP-62 NSCLC it was 28.8 µM; in the assay on MOLT-4 leukemia, 13.4 µM; in the assay with NCI-H522 lung, 20.3 µM; in the assay with SF-295 CNS, 31.8 µM; in the assay with SK-MEL-2 melanoma, 27.3 µM. In addition, the TGI in the assay on SW-620 colon is 11.7 µM; in the assay with T-47D breast, 26.4 µM.
As to `O=P1(S)OC[C@H]2O[C@@H]3[C@H](F)[C@@H]2OP(O)(=S)OC[C@H]2O[C@H]([C@H](F)[C@@H]2O1)n1cnc2c(ncnc21)NC/C=C/CNc1ncnc2c1ncn23` (stereo partly specified), the GI50 in the assay with A549 NSCLC, in the assay with HOP-62 NSCLC, in the assay on MOLT-4 leukemia, in the assay on NCI-H522 lung, with SF-295 CNS and in the assay on SK-MEL-2 melanoma was greater than 100 µM in each case. The GI50 with SW-620 colon and in the assay with T-47D breast was greater than 100 µM each time. The TGI with A549 NSCLC, in the assay on HOP-62 NSCLC, in the assay on MOLT-4 leukemia, with NCI-H522 lung, in the assay on SF-295 CNS and with SK-MEL-2 melanoma was greater than 100 µM each time. The TGI in the assay with SW-620 colon and with T-47D breast was greater than 100 µM throughout.
With `C1CC[N-]CC1.CC(=N\O)/C(C)=N/O.CC(=N\O)/C(C)=N/O.OC1[CH-]CCCC1.[Co+2]`, the GI50 was 58.5 µM with A549 NSCLC; greater than 100 µM with HOP-62 NSCLC; 26.4 µM in the assay with MOLT-4 leukemia; 15.7 µM with NCI-H522 lung; greater than 100 µM with SF-295 CNS; 23.9 µM in the assay on SK-MEL-2 melanoma. Further, the GI50 in the assay with SW-620 colon is 31.6 µM; with T-47D breast, 16.5 µM. The TGI in the assay on A549 NSCLC is greater than 100 µM; in the assay on HOP-62 NSCLC, greater than 100 µM; in the assay on MOLT-4 leukemia it was 99.1 µM; in the assay on NCI-H522 lung it was 31 µM; with SF-295 CNS, greater than 100 µM; in the assay on SK-MEL-2 melanoma, 59.7 µM. In addition, the TGI is greater than 100 µM with SW-620 colon and 69.5 µM with T-47D breast.
For `CCCCCCCCNCCC[C@@H](C)[C@H]1CC[C@H]2[C@@H]3[C@H](OCCCN)C[C@H]4C[C@H](OCCCN)CC[C@]4(C)[C@H]3C[C@H](OCCCN)[C@]12C`, the GI50 in the assay on A549 NSCLC was 2.43 µM; in the assay with HOP-62 NSCLC it was 1.53 µM; with MOLT-4 leukemia, 3.12 µM; in the assay on NCI-H522 lung, 2.48 µM; with SF-295 CNS, 0.993 µM; in the assay on SK-MEL-2 melanoma, 3.75 µM. Also, the GI50 with SW-620 colon was 1.72 µM; in the assay with T-47D breast, 3.92 µM. Moreover, the TGI with A549 NSCLC was 8.81 µM; in the assay on HOP-62 NSCLC, 7.16 µM; in the assay with MOLT-4 leukemia it was 9.69 µM; in the assay with NCI-H522 lung, 7.16 µM; with SF-295 CNS it was 4.43 µM; in the assay with SK-MEL-2 melanoma, greater than 31.3 µM. The TGI was 3.85 µM with SW-620 colon and greater than 26.7 µM in the assay with T-47D breast.
In the case of `COC(=O)C1C(O)C(C)C(O)C(C)C=C(C)C2=C3C(=C(C)C(=O)c4c(O)c(c(C)c(OC(C)=O)c43)NC(=O)C(C)=C/C=C\C(C)C(O)C(C)C1O)OCO2` (stereo unspecified), the TGI with A549 NSCLC was greater than 100 µM; in the assay with HOP-62 NSCLC, greater than 100 µM; in the assay on MOLT-4 leukemia, 51.4 µM; in the assay with NCI-H522 lung, 39.4 µM; with SF-295 CNS it was greater than 100 µM; in the assay with SK-MEL-2 melanoma, 74.2 µM. Also, the TGI was 56.4 µM with SW-620 colon and greater than 100 µM in the assay with T-47D breast.
`O=C1CCC(N2C(=O)c3ccccc3C2=O)C(=O)N1` (stereo unspecified): the TGI with A549 NSCLC, with HOP-62 NSCLC, in the assay on MOLT-4 leukemia, in the assay on NCI-H522 lung, with SF-295 CNS and in the assay on SK-MEL-2 melanoma was greater than 100 µM each time. For the same molecule, the TGI in the assay with SW-620 colon and with T-47D breast was greater than 100 µM throughout.

The values above are taken from PubChem BioAssay (NCI).
